Source: paper PMC10572855, “Phenotypic Test of Benzo[4,5]imidazo[1,2-c]pyrimidinone-Based Nucleoside and Non-Nucleoside Derivatives against DNA and RNA Viruses, Including Coronaviruses” (International Journal of Molecular Sciences, 2023)
Where two headings read alike, the source gives them in different places.

Assays:
HCoV 229E = test: Cytopathic effect reduction, HCoV 229E; assay type: cell-based, Human coronavirus 229E; details: reduction of virus-induced cytopathic effect by 50%, virus input 100 TCID50, read-out: Antiviral Activity (EC50) HCoV 229E
HCoV OC43 = test: Cytopathic effect reduction, HCoV OC43; assay type: cell-based, Human coronavirus OC43; details: reduction of virus-induced cytopathic effect by 50%, virus input 100 TCID50, read-out: Antiviral Activity (EC50) HCoV OC43
[1] = Cytotoxicity in Huh7 cells, MTS assay; assay type: cell-based, Human; details: human, Huh7 cells, cell growth reduced by 50%
Method: (§1) Cells were seeded at a rate of 5 × 10^3 cells/well into 96-well plates and allowed to proliferate for 24 h. Then, a medium containing different concentrations of the test compounds, starting at 100 mM, was added. After 3 days of incubation at 37 °C, the cell count was determined with a Beckman Coulter counter or, alternatively, cell viability was determined with the colorimetric formazan-based MTS assay. […] The cytotoxic effects of the compounds were also assessed by evaluating the MCC (minimum cytotoxic concentration that causes a microscopically detectable alteration of cell morphology).

RSV (Long) = test: Cytopathic effect reduction, RSV (Long); assay type: cell-based, Respiratory syncytial virus; details: reduction of virus-induced cytopathic effect by 50%, virus input 100 TCID50, read-out: Antiviral Activity (EC50) RSV Long
HCoV NL63 = test: Cytopathic effect reduction, HCoV NL63; assay type: cell-based, Human coronavirus NL63; details: reduction of virus-induced cytopathic effect by 50%, virus input 100 TCID50, read-out: Antiviral Activity (EC50) HCoV NL63
[2] = Cytotoxicity in HEL299 cells, MTS assay; assay type: cell-based, Human; details: human, HEL299 cells, cell growth reduced by 50%
Method: as §1

Huh7 cells = test: Cytotoxicity in Huh7 cells, MTS assay; assay type: cell-based, Human; details: cell growth reduced by 50%
Method: as §1

HEL299 cells = test: Cytotoxicity in HEL299 cells, MTS assay; assay type: cell-based, Human; details: cell growth reduced by 50%
Method: as §1

[3] = human respiratory syncytial virus

SMILES	EC50 (HCoV 229E; Human coronavirus 229E) [µM]	EC50 (HCoV OC43; Betacoronavirus 1, OC43) [µM]	CC50 at 3 days [1] [µM]	EC50 (RSV (Long); [3]) [µM]	EC50 (HCoV NL63; Human coronavirus NL63) [µM]	CC50 at 3 days [2] [µM]	EC50 (HCoV 229E) [µM]	EC50 (HCoV OC43) [µM]	CC50 (Huh7 cells) [µM]	EC50 (RSV (Long)) [µM]	EC50 (HCoV NL63) [µM]	CC50 (HEL299 cells) [µM]
O=c1n([C@H]2C[C@H](O)[C@@H](CO)O2)ccc2nc3cc(O)ccc3n12 [Compound 2a, 7-hydroxy-2-((2R,4S,5R)-4-hydroxy-5-(hydroxymethyl)tetrahydrofuran-2-yl)benzo[4,5]imidazo[1,2-c]pyrimidin-1(2H)-one]	> 100	> 100	> 100	> 100	> 100	> 100	–	–	–	–	–	–
O=c1n([C@@H]2O[C@H](CO)[C@@H](O)[C@H]2O)ccc2nc3cc(O)ccc3n12 [Compound 2b, 2-((2R,3R,4S,5R)-3,4-dihydroxy-5-(hydroxymethyl)tetrahydrofuran-2-yl)-7-hydroxybenzo[4,5]imidazo[1,2-c]pyrimidin-1(2H)-one]	> 100	> 100	> 100	> 100	> 100	> 100	–	–	–	–	–	–
CCCCOc1ccc2c(c1)nc1ccn([C@H]3C[C@H](O)[C@@H](COC(c4ccccc4)(c4ccc(OC)cc4)c4ccc(OC)cc4)O3)c(=O)n12 [Compound 4a, 2-((2R,4S,5R)-5-((bis(4-methoxyphenyl)(phenyl)methoxy)methyl)-4-hydroxytetrahydrofuran-2-yl)-7-butoxybenzo[4,5]imidazo[1,2-c]pyrimidin-1(2H)-one]	–	–	–	–	–	–	> 100	> 100	> 40	> 100	> 100	> 40
CCCCCCOc1ccc2c(c1)nc1ccn([C@H]3C[C@H](O)[C@@H](COC(c4ccccc4)(c4ccc(OC)cc4)c4ccc(OC)cc4)O3)c(=O)n12 [Compound 4b, 2-((2R,4S,5R)-5-((bis(4-methoxyphenyl)(phenyl)methoxy)methyl)-4-hydroxytetrahydrofuran-2-yl)-7-(hexyloxy)benzo[4,5]imidazo[1,2-c]pyrimidin-1(2H)-one]	–	–	–	–	–	–	> 100	> 100	> 100	> 100	> 100	> 100
CCCCCCCCOc1ccc2c(c1)nc1ccn([C@H]3C[C@H](O)[C@@H](COC(c4ccccc4)(c4ccc(OC)cc4)c4ccc(OC)cc4)O3)c(=O)n12 [Compound 4c, 2-((2R,4S,5R)-5-((bis(4-methoxyphenyl)(phenyl)methoxy)methyl)-4-hydroxytetrahydrofuran-2-yl)-7-(octyloxy)benzo[4,5]imidazo[1,2-c]pyrimidin-1(2H)-one]	–	–	–	–	–	–	> 100	> 100	> 100	> 100	> 100	> 40
CCCCCCCCCCOc1ccc2c(c1)nc1ccn([C@H]3C[C@H](O)[C@@H](COC(c4ccccc4)(c4ccc(OC)cc4)c4ccc(OC)cc4)O3)c(=O)n12 [Compound 4d, 2-((2R,4S,5R)-5-((bis(4-methoxyphenyl)(phenyl)methoxy)methyl)-4-hydroxytetrahydrofuran-2-yl)-7-(decyloxy)benzo[4,5]imidazo[1,2-c]pyrimidin-1(2H)-one]	–	–	–	–	–	–	> 100	> 100	> 40	> 100	> 100	> 40
CCCCCCCCCCCCOc1ccc2c(c1)nc1ccn([C@H]3C[C@H](O)[C@@H](COC(c4ccccc4)(c4ccc(OC)cc4)c4ccc(OC)cc4)O3)c(=O)n12 [Compound 4e, 2-((2R,4S,5R)-5-((bis(4-methoxyphenyl)(phenyl)methoxy)methyl)-4-hydroxytetrahydrofuran-2-yl)-7-(dodecyloxy)benzo[4,5]imidazo[1,2-c]pyrimidin-1(2H)-one]	–	–	–	–	–	–	> 100	> 100	> 100	> 100	> 100	> 100
CCCCOc1ccc2c(c1)nc1ccn([C@@H]3O[C@H](COC(c4ccccc4)(c4ccc(OC)cc4)c4ccc(OC)cc4)[C@@H](O)[C@H]3O)c(=O)n12 [Compound 5a, 2-((2R,3R,4S,5R)-5-((bis(4-methoxyphenyl)(phenyl)methoxy)methyl)-3,4-dihydroxytetrahydrofuran-2-yl)-7-butoxybenzo[4,5]imidazo[1,2-c]pyrimidin-1(2H)-one]	–	–	–	–	–	–	> 100	> 100	> 100	> 100	> 100	> 100
CCCCCCOc1ccc2c(c1)nc1ccn([C@@H]3O[C@H](COC(c4ccccc4)(c4ccc(OC)cc4)c4ccc(OC)cc4)[C@@H](O)[C@H]3O)c(=O)n12 [Compound 5b, 2-((2R,3R,4S,5R)-5-((bis(4-methoxyphenyl)(phenyl)methoxy)methyl)-3,4-dihydroxytetrahydrofuran-2-yl)-7-(hexyloxy)benzo[4,5]imidazo[1,2-c]pyrimidin-1(2H)-one]	–	–	–	–	–	–	> 100	> 50	> 10	> 100	> 100	> 100
CCCCCCCCOc1ccc2c(c1)nc1ccn([C@@H]3O[C@H](COC(c4ccccc4)(c4ccc(OC)cc4)c4ccc(OC)cc4)[C@@H](O)[C@H]3O)c(=O)n12 [Compound 5c, 2-((2R,3R,4S,5R)-5-((bis(4-methoxyphenyl)(phenyl)methoxy)methyl)-3,4-dihydroxytetrahydrofuran-2-yl)-7-(octyloxy)benzo[4,5]imidazo[1,2-c]pyrimidin-1(2H)-one]	–	–	–	–	–	–	> 100	> 100	> 10	> 100	> 100	> 100
CCCCCCCCCCOc1ccc2c(c1)nc1ccn([C@@H]3O[C@H](COC(c4ccccc4)(c4ccc(OC)cc4)c4ccc(OC)cc4)[C@@H](O)[C@H]3O)c(=O)n12 [Compound 5d, 2-((2R,3R,4S,5R)-5-((bis(4-methoxyphenyl)(phenyl)methoxy)methyl)-3,4-dihydroxytetrahydrofuran-2-yl)-7-(decyloxy)benzo[4,5]imidazo[1,2-c]pyrimidin-1(2H)-one]	–	–	–	–	–	–	> 100	> 100	> 100	> 100	> 100	> 100
CCCCCCCCCCCCOc1ccc2c(c1)nc1ccn([C@@H]3O[C@H](COC(c4ccccc4)(c4ccc(OC)cc4)c4ccc(OC)cc4)[C@@H](O)[C@H]3O)c(=O)n12 [Compound 5e, 2-((2R,3R,4S,5R)-5-((bis(4-methoxyphenyl)(phenyl)methoxy)methyl)-3,4-dihydroxytetrahydrofuran-2-yl)-7-(dodecyloxy)benzo[4,5]imidazo[1,2-c]pyrimidin-1(2H)-one]	–	–	–	–	–	–	> 100	> 100	> 40	> 100	> 100	> 100
CCCCOc1ccc2c(c1)nc1cc[nH]c(=O)n12 [Compound 6a, 7-butoxybenzo[4,5]imidazo[1,2-c]pyrimidin-1(2H)-one]	> 100	> 100	> 100	> 100	> 100	> 100	–	–	–	–	–	–
CCCCCCOc1ccc2c(c1)nc1cc[nH]c(=O)n12 [Compound 6b, 7-(hexyloxy)benzo[4,5]imidazo[1,2-c]pyrimidin-1(2H)-one]	> 100	> 100	> 100	> 100	> 100	> 100	–	–	–	–	–	–
CCCCCCCCOc1ccc2c(c1)nc1cc[nH]c(=O)n12 [Compound 6c, 7-(octyloxy)benzo[4,5]imidazo[1,2-c]pyrimidin-1(2H)-one]	> 100	> 100	> 100	> 100	> 100	> 100	–	–	–	–	–	–
CCCCCCCCCCOc1ccc2c(c1)nc1cc[nH]c(=O)n12 [Compound 6d, 7-(decyloxy)benzo[4,5]imidazo[1,2-c]pyrimidin-1(2H)-one]	> 100	> 100	> 100	> 100	> 100	> 100	–	–	–	–	–	–
CCCCCCCCCCCCOc1ccc2c(c1)nc1cc[nH]c(=O)n12 [Compound 6e, 7-(dodecyloxy)benzo[4,5]imidazo[1,2-c]pyrimidin-1(2H)-one]	> 100	> 100	> 100	> 100	> 100	> 100	–	–	–	–	–	–
